The record followed here is PubChem BioAssay (NCI).

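Method: 48-hour compound exposure of cells in 96-well plates, five concentrations, linear interpolation of endpoints. TGI: total growth inhibition.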

Common to all, as to experiment: inhibition of tumour cell growth, NCI panel, 48 h
Test [1] concerns RXF 393 renal.
Test [2] has as its system M14 melanoma.
The subject of test [3] is KM12 colon.
For test [4], the system named is MOLT-4 leukemia.
Test [5] has as its system SF-268 CNS.
Test [6] relates to K-562 leukemia.
The subject of test [7] is DU-145 prostate.
The test system of test [8] is HOP-62 NSCLC.
Test [9] deals with SK-MEL-5 melanoma.
For test [10], the system named is HCT-15 colon.
In test [11] the test system is SK-MEL-28 melanoma.
Test [12] relates to CCRF-CEM leukemia.
Test [13] relates to SF-295 CNS.
The subject of test [14] is A498 renal.
The subject of test [15] is NCI/ADR-RES ovarian.
In test [16] the test system is HCT-116 colon.
Test [17] deals with SK-MEL-2 melanoma.
Test [18] has as its system SNB-75 CNS.
In test [19] the test system is CAKI-1 renal.
Test [20] relates to RPMI-8226 leukemia.

In the case of `c1ccc2c(CSCc3cccc4ccccc34)cccc2c1`, the TGI in [1], in [2], in [3], in test [4], in [5] and in [6] was over 100 µM each time. For the same molecule, the TGI in test [7], in test [8], in [9], in test [10], in [11] and in [12] was over 100 µM in each case. For the same molecule, the TGI in [13], in [14], in [15], in test [16], in test [17] and in [18] was over 100 µM in each case. Besides, in [19], the TGI was over 100 µM.

Consider `CCCCc1ccc(N=C(N)N)cc1`, for which the TGI in test [2] was 63.5 µM; in test [3], 36.6 µM; in test [5] it was over 100 µM; in test [20] it was 45.2 µM; in test [6], 83.4 µM; in [7], over 100 µM. The TGI was 26.8 µM in test [9]; over 100 µM in [10]; over 100 µM in test [11]; 53.7 µM in [12]; 87.3 µM in test [13]; over 100 µM in [14]. Further, the TGI in test [15], in [16], in test [17] and in test [19] was over 100 µM in each case.

`COc1cc2c(c(OC)c1OC)-c1ccc(OC)c(=O)cc1C(NC(=O)COc1ccccc1)CC2` (stereo unspecified): the TGI was over 71.5 µM in [1]; over 21.5 µM in [2]; under 0.011 µM in test [3]; 53 µM in test [4]; 61.6 µM in test [5]; 38.3 µM in [20]. Moreover, the TGI in test [6] is 60.8 µM; in [7], under 0.01 µM; in test [8] it was over 100 µM; in test [9], 0.0371 µM; in test [10] it was over 100 µM; in test [11], over 100 µM. Besides, the TGI in test [12] is over 63.4 µM; in test [13], 0.0874 µM; in test [14], 2.46 µM; in test [15], 0.4 µM; in [17], over 15.8 µM; in [18], 10.5 µM. In test [19], this molecule displayed a TGI of 15.3 µM.

With `C[C@@H]1C[C@H]2[C@@H]3CCC4=CC(=O)C=C[C@]4(C)[C@@]3(F)[C@@H](O)C[C@]2(C)[C@@]1(O)C(=O)CO`, the TGI in test [2], in [3], in [4], in [6], in test [8] and in test [9] was over 100 µM each time. Moreover, the TGI in [10], in [11], in [12], in test [16], in test [17] and in [19] was over 100 µM each time.

For the molecule `CC(C)(C)[Si](OC1CCOC1=O)(c1ccccc1)c1ccccc1` (stereo unspecified), the TGI in test [2] was 38.4 µM; in [3] it was over 10 µM; in test [4], 59 µM; in [5], over 100 µM; in test [20], over 100 µM; in test [9], 26.1 µM. Moreover, the TGI was 61.5 µM in [10]; 62.6 µM in test [11]; over 100 µM in [12]; 60.2 µM in [13]; 63.8 µM in test [14]; 26.6 µM in test [16]. Moreover, the TGI in [17] is 32.5 µM; in [18], over 100 µM.

Take `CC(=O)Nc1ccc2c(c1)/C(=C\c1ccc([N+](C)(C)C)cc1)c1ccccc1-2`: the TGI in test [1] is over 100 µM; in test [2] it was 33.8 µM; in [3], over 100 µM; in [4], over 100 µM; in test [5] it was over 100 µM; in test [20] it was 91.3 µM. Also, the TGI in test [6] is over 100 µM; in test [7], over 100 µM; in [8], over 100 µM; in test [9] it was 61.8 µM; in test [10] it was over 100 µM; in [11], over 100 µM. Further, the TGI is 50.9 µM in test [12]; over 100 µM in test [13]; over 100 µM in test [14]; over 100 µM in test [15]; over 100 µM in test [16]; over 100 µM in test [18]. In [19], this molecule returned a TGI of over 100 µM.

`COc1cc(C(=O)NC2CCc3cc(OC)c(OC)c(OC)c3-c3ccc(OC)c(=O)cc32)cc(OC)c1OC` (stereo unspecified): the TGI in [1] was 24 µM; in [2] it was 10.5 µM; in test [3] it was 0.801 µM; in test [4] it was 43.2 µM; in test [5], 42.4 µM; in test [20], 27.4 µM. The TGI in [6] is 22 µM; in test [8], over 100 µM; in test [9], 0.377 µM; in test [10], over 100 µM; in [11], over 100 µM; in test [12], over 35 µM. The TGI in test [13] was 13 µM; in test [14] it was 8.44 µM; in test [15] it was 70.3 µM; in test [16], 1.69 µM; in test [17] it was over 24.1 µM; in [18], 18.3 µM. The molecule further displayed a TGI in test [19] of 34 µM.

Consider `CC(=O)Oc1ccccc1`, for which the TGI in [1], in [2], in test [3], in [4], in test [5] and in test [20] was over 100 µM throughout. Moreover, the TGI in test [6], in [8], in test [9], in [10], in test [11] and in [12] was over 100 µM in each case. Also, the TGI in test [13], in [14], in test [16], in [17], in [18] and in test [19] was over 100 µM in each case.
